Reference: the Deep4Chem optical property database

Assay: solvent given as SMILES

Q: Which absorption maximum (in ClC(Cl)Cl) does the source give for `CCOC(CN1C(=O)C2=C(c3ccsc3)N(CC(OCC)OCC)C(=O)C2=C1c1ccsc1)OCC` here?
A: 493 nm

Q: For `F[B-]1(F)Oc2ccc3ccccc3c2-c2c3c(c4c([n+]21)CCc1ccccc1-4)CCc1ccccc1-3`, which absorption maximum (in ClCCl) is on record?
A: 346 nm

Q: Which absorption maximum (in CN(C)C=O) does the source give for `CCN(CC)c1ccc(/C=C2\CC/C(=C\c3ccc(N(c4ccccc4)c4ccc(/C=C5\CC/C(=C\c6ccc(N(CC)CC)cc6)C5=C(C#N)C#N)cc4)cc3)C2=C(C#N)C#N)cc1` here?
A: 592 nm

Q: Which results are given for `COc1ccc2nc3c(nc2c1)c(-c1ccccc1)nn3C`?
A: absorption maximum (in C1CCCCC1): 431 nm; absorption maximum (in C1CCOC1): 435 nm; absorption maximum (in CC#N): 434 nm

Q: For `CCCCCn1c2ccc(S(=O)(=O)O)cc2c(=O)c2cc(S(=O)(=O)O)ccc21`, which absorption maximum (in CS(C)=O) is on record?
A: 406 nm

Q: What about the absorption maximum (in O) of the same compound?
A: 406 nm

Q: What does the source list for `CCCCC1(CCCC)c2cc(-c3ccc(C=C4C(=O)c5ccccc5C4=O)cc3)ccc2-c2ccc(-c3ccc(C=C4C(=O)c5ccccc5C4=O)cc3)cc21`?
A: absorption maximum (in C1CCOC1): 438 nm; absorption maximum (in CC(C)=O): 435 nm; absorption maximum (in CCCCCC): 418 nm; absorption maximum (in CS(C)=O): 445 nm; absorption maximum (in Cc1ccccc1): 437 nm; absorption maximum (in ClC(Cl)Cl): 445 nm

Q: Which absorption maximum (in Cc1ccccc1) does the source give for `F[B-]1(F)Oc2ccccc2-c2cc(-n3c4ccccc4c4ccccc43)cc[n+]21` here?
A: 366 nm

Q: With `Cc1ccc(CN2/C(=C/C=C3\CCCC(/C=C/C4=[N+](Cc5ccc(C)cc5)c5ccccc5C4(C)C)=C3Cl)C(C)(C)c3ccccc32)cc1` as the compound, how does the absorption maximum (in CO) read?
A: 785 nm

Q: For `COc1cc2c(cc1OC)C1=C[C@H](c3ccccc3)C3(C(C#N)=C(C#N)N1CC2)c1cc(Cl)ccc1-c1ccc(Cl)cc13`, which absorption maximum (in ClCCl) is on record?
A: 310 nm

Q: What does the source list for `O=C1Cc2ccc(cc2)CC(=O)Cc2ccc(c3nsnc23)C1`?
A: absorption maximum (in C1CCCCC1): 384 nm; absorption maximum (in CC#N): 382 nm; absorption maximum (in ClC(Cl)Cl): 384 nm

Q: Which absorption maximum (in C1COCCO1) does the source give for `COc1ccc(C2=C/C(=C\c3ccc([N+](=O)[O-])cc3)C(=O)N2CC(C)C)cc1` here?
A: 465 nm

Q: Which results are given for `COc1cc2cc(OC)c(-c3ccc([N+](=O)[O-])cc3)cc2cc1-c1ccc([N+](=O)[O-])cc1`?
A: absorption maximum (in ClC(Cl)Cl): 336 nm; absorption maximum (in ClCCl): 337 nm

Q: Which results are given for `COc1ccc2c3cccc4c(OC)ccc(c5cccc1c52)c43`?
A: absorption maximum (in C1CCOC1): 458 nm; absorption maximum (in Cc1ccccc1): 459 nm; absorption maximum (in ClC(Cl)(Cl)Cl): 460 nm; absorption maximum (in ClC(Cl)Cl): 459 nm; absorption maximum (in ClCCl): 459 nm; absorption maximum (in c1ccncc1): 463 nm

Q: For `O=c1c2ccccc2nc2n1[B-](F)(F)[n+]1ccccc1-2`, which absorption maximum (in CC#N) is on record?
A: 334 nm

Q: And the absorption maximum (in ClCCl)?
A: 353 nm

Q: For `Cc1cccc(C2=Cc3ccc4ccccc4[n+]3[B-](F)(F)O2)c1`, which absorption maximum (in ClC(Cl)Cl) is on record?
A: 429 nm

Q: For `COc1ccc(N(c2ccc(OC)cc2)c2ccc(-c3ccc(-c4ccc5nc6ccccc6c(=O)n5c4)cc3)cc2)cc1`, which absorption maximum (in ClCCl) is on record?
A: 367 nm

Q: Which absorption maximum (in Cc1ccccc1) does the source give for `FC(F)(F)c1ccc(-c2nnc(-c3cc(-c4nnc(-c5ccc(C(F)(F)F)cc5)o4)c(-n4c5ccccc5c5ccccc54)cc3-n3c4ccccc4c4ccccc43)o2)cc1` here?
A: 376 nm

Q: For `c1ccc2cc(-c3c4ccccc4c(-c4ccc(-n5c6ccccc6c6ccccc65)cc4)c4ccccc34)ccc2c1`, which absorption maximum (in ClCCl) is on record?
A: 377 nm

Q: Which absorption maximum (in ClCCl) does the source give for `Cc1cc2ccsc2c2[nH]c3ccccc3c12` here?
A: 310 nm

Q: With `CCn1c2ccccc2c2cc(-c3cc(-c4ccc5c(c4)c4ccccc4n5CC)nc(-c4ccccc4)n3)ccc21` as the compound, how does the absorption maximum (in C1CCOC1) read?
A: 364 nm

Q: What about the absorption maximum (in CCOC(C)=O) of the same compound?
A: 360 nm

Q: And the absorption maximum (in CN(C)C=O)?
A: 367 nm

Q: What about the absorption maximum (in Cc1ccccc1) of the same compound?
A: 363 nm

Q: And the absorption maximum (in ClCCl)?
A: 363 nm

Q: With `c1ccc(-c2cc3cccc[n+]3[b-]3c(-c4cccc5[b-]4[n+]4ccccc4cc5-c4ccccc4)cccc32)cc1` as the compound, how does the absorption maximum (in C1CCCCC1) read?
A: 449 nm

Q: For `CN1/C(=C/C=C(/C=C/C2=[N+](C)c3ccccc3C2(C)C)c2ccccc2)C(C)(C)c2ccccc21`, which absorption maximum (in CCO) is on record?
A: 640 nm

Q: And the absorption maximum (in CO)?
A: 637 nm

Q: And the absorption maximum (in CS(C)=O)?
A: 645 nm

Q: What about the absorption maximum (in O) of the same compound?
A: 634 nm

Q: Which absorption maximum (in ClCCl) does the source give for `CCCCCCCCOc1ccc(C2=C3C(C)=CC(C)=[N+]3[B-](F)(F)n3c(C)cc(C)c32)cc1` here?
A: 500 nm

Q: With `CCOC(=O)C1=CN(Cc2ccccc2)C=C(C(=O)OCC)C1` as the compound, how does the absorption maximum (in C1CCOC1) read?
A: 367 nm

Q: What about the absorption maximum (in CO) of the same compound?
A: 371 nm

Q: With `CCCCCCCc1cc2c(o1)=CC1=C3c4cc5oc(CCCCCCC)cc5n4[B-](F)(F)[n+]4nnn(c43)[B-](F)(F)[N+]=21` as the compound, how does the absorption maximum (in C1CCOC1) read?
A: 676 nm

Q: What about the absorption maximum (in ClCCl) of the same compound?
A: 685 nm
